# Measured values reported in article PMC7724566, “Prospects for Clinical Development of Stat5 Inhibitor IST5-002: High Transcriptomic Specificity in Prostate Cancer and Low Toxicity In Vivo” (Cancers, 2020).
# How the values were obtained:
# Stat5 = Stat5 phosphorylation in CWR22Rv1 cells (IP/immunoblot); assay type: cell-based, human; conditions: 4 days
# Method: In order to evaluate whether the phosphate group of IST5 is critical for IST5 activity in cell-based assays, we compared the potency of IST5 (Figure 4A) to that of IST5-M (IST5 without the phosphate group) (Figure 4B) in inhibiting phosphorylation of Stat5 in PC and CML cells. CML (K562) cells and PC (CWR22Rv1) cells were cultured for 4 days with increasing concentrations of IST5 and IST5-M (Figure 4C,D). […] Collectively, these finding indicate that IST5 and IST5-M have similar efficacies in inhibiting phosphorylation of Stat5 in both CML and PC cells.
# Figure 4 IST5 and the IST5-derivative lacking the phosphate group (IST5-M), both, inhibit Stat5 phosphorylation in CML and prostate cancer cell line with high efficacy. (A), chemical structure of IST5-002 (IST5). (B), chemical structure of IST5-M (IST5 without the phosphate group. (C), IST5 and IST5-M both inhibit Stat5 phosphorylation in CML cells (K562) with high efficacy. K562 cells were treated with IST5 and IST5-M for 4 days at the concentrations indicated. Whole cell lysates (WCL) were immunoblotted with anti-pYStat5 mAb, anti-Stat5 mAb and anti-actin mAb as loading control. (D), IST5 and IST5-M, both, decrease Stat5 phosphorylation in PC cells (CWR22Rv1). CWR22Rv1 cells were treated with increasing concentrations of IST5 and IST5-M for 4 days. Stat5 was immunoprecipitated (IP) followed by immunoblotting (WB) with anti-pYStat5 mAb and anti-Stat5 mAb. Whole cell lysates (WCL) were immunoblotted with anti-actin mAb as loading control.
# Cell pellets were solubilized in the lysis buffer (10 mM Tris-HCl (pH 7.6), 5 mM EDTA, 50 mM sodium chloride, 30 mM sodium pyrophosphate, 50 mM sodium fluoride, 1 mM sodium orthovanadate, 1% Triton X-100, 1 mM phenylmethylsulfonyl fluoride, 5 µg/mL aprotinin, 1 µg/mL pepstatin A and 2 µg/mL leupeptin), and protein concentrations of clarified cell lysates were determined by a simplified Bradford method (Bio-Rad, Hercules, CA, USA). The whole cell lysates were immunoprecipitated with polyclonal antibodies (Table S1) followed by incubation with protein A-Sepharose beads (GE Healthcare, Chicago, IL, USA). The cell lysates and immunoprecipitated proteins were separated on 4–12% SDS-PAGE (Life Technologies, Brown Deer, WI, USA) and transferred electrophoretically to polyvinylidene fluoride membrane (Millipore). For immunoblotting, blocking buffer was tris-buffered saline and tween 20 (TBST, 0.15 M NaCl; 0.1% Tween 20; 50 mM Tris, pH 8.0) with 3% bovine serum albumin (BSA). The immunoreaction with the specific antibodies (Table S1) was detected by horseradish peroxidase-conjugated secondary antibodies followed by enhanced chemiluminescence (GE Healthcare).
# panel of 54 kinases = experiment: Cell-free kinase panels, overall; assay type: biochemical; conditions: 1 µM
# Description: Given that IST5 suppresses phosphorylation of Stat5 in PC cells, it is possible that IST5 inhibits the kinase(s) responsible for Stat5 phosphorylation and activation in PC cells. To evaluate if IST5 affects kinase activity in cancer cells, we tested kinase inhibitory activity of IST5 in two custom-tailored panels including 54 relevant kinases (Table 1), including Jak1, Jak2, Jak3, Tyk2, Abl1, Abl2, Lck, Fyn, Src and TrkB/C. In addition, we further tested if IST5 inhibits tyrosine phosphorylation of Jak1, Jak2, Jak3 or Tyk2 using a cell-based assay (Figure 5D), where phosphorylation of the kinase is indicative of enzymatic kinase activity. DU145 and CWR22Rv1 cells were treated with IST5 (6 µM) for 6 h followed by immunoprecipitation of Jak1, Jak2, Jak3 and Tyk2 and immunoblotting with anti-phospho-tyrosine antibody. […]
# For Jak1, Jak2, Jak3 and Tyk2, a radiometric filtration binding assay was conducted by Reaction Biologicals (Malvern, PA, USA) (Table 1). […] For evaluation of the activity of the other kinases, the Kinase Seeker Technology was utilized (Luceome Biotechnologies, Tucson, AZ, USA), which is a luminescence-based cell-free assay. […] The competitive displacement of the probe by an inhibitor is measured by a change in luminescence signal. […]
structure (smiles),measurement,setting,value
O=P(O)(O)OCC1OC(n2cnc3c(NCc4ccccc4)ncnc32)C(O)C1O (stereo not drawn) [IST5],inhibition of Stat5 phosphorylation,"Stat5; 2 µM, CWR22Rv1 cells",60–75%
same,IC50,"Stat5; read-out: IC50, inhibition of Stat5 phosphorylation, CWR22Rv1 PC cells",~1.3 µM
same,inhibitory activity against the kinases of Table 1,panel of 54 kinases,no significant inhibitory activity
